The values that follow come from patent US12193437B2, “Pesticidal compositions” (Monsanto Technology LLC, priority 2016, dated 2025).

This data set can be described thus: Solubility of dicamba and its sodium salt.

`COc1c(Cl)ccc(Cl)c1C(=O)[O-].[Na+]` [sodium salt of dicamba, sodium dicamba]: the aqueous solubility result (fully neutralized (molar equivalence of 1) sodium salt, water) is given as “about 35 wt. % acid equivalent”.

With `COc1c(Cl)ccc(Cl)c1C(=O)O` [dicamba, 3,6-dichloro-2-methoxybenzoic acid], the “amount dissolved in mixtures of a water-miscible glycol and water” value (glycol 30% or higher by weight of the mixture) is “about 45 % by weight of the solution”.
